Reference: US7148352B2, “Method of inhibiting neurotrophin-receptor binding” (Queen's University at Kingston, priority 1999, dated 2006)
Where “and” joins values, the source holds several entries; their conditions need not be identical. Equal values may be shown once.

Tests used:
Parameters in all cases: species or system rat
[1] = biological target: T1, TrkA and p75^NTR (PC12 cells) (Mus musculus, UniProt P01139); test: 125I-NGF receptor binding to PC12 cells in the presence of competitor; settings: compound 50 μM; 125I-NGF 1 nM; 2 h at 4° C.; average of three values
T1 construct: PC12 cells (rat pheochromocytoma cells expressing TrkA and p75^NTR; obtained from ATCC); host or cells: PC12 rat pheochromocytoma cells (intact, in suspension)
T1 sequence (P01139 122-241): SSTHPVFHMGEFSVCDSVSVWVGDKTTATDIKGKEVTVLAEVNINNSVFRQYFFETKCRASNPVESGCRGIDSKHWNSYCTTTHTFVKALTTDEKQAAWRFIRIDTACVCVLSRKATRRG
Method: (§1) The radio-iodination and receptor binding of NGF (Sutter et al., 1979) was performed with modifications (Ross et al., 1997) as follows: Evaluation of the ability of NCP compounds to inhibit TrkA and p75^NTR binding was determined by the binding of ^125I-NGF to PC12 cells (rat pheochromocytoma cells expressing TrkA and p75^NTR; obtained from ATCC) and PC12^nnr5 (rat pheochromocytoma cells expressing p75^NTR only; obtained from Dr. L. Greene, Columbia University, NY). The p75^NTR is in a low affinity state and a high affinity state, respectively, in these cell types (Ross et al., 1998). PC12 and PC12^nnr5 cells were grown in RPMI (Sigma) with 10% heat inactivated donor horse serum and 5% fetal calf serum. Cells were harvested by replacing the medium with calcium, magnesium-free balanced salt solution (Gey's solution) and incubating at 37° C. for 15 minutes. Cells were pelleted by centrifugation and suspended in HKR buffer (10 mM Hepes [pH 7.35] containing 125 mM NaCl, 4.8 mM KCl, 1.3 mM CaCl2, 1.2 mM MgSO4, 1.2 mM KH2PO4, 1 g/L glucose and 1 g/L BSA) at a cell concentration of 2×10^6/mL and kept at 4° C. Triplicate tubes were set up for total binding, non-specific binding and binding in the presence of candidate competitor molecule (i.e., a tube for each data point). Each tube contained ^125I-NGF (at 1 nM), 400,000 cells (for a final cell concentration of 10^6/mL) and NGF (50 nM, to define non-specific binding), as required. The tubes were incubated for 2 h at 4° C. and specific binding evaluated by measuring specifically bound DPM (Ross et al., 1997). Data were analysed and the results expressed as receptor binding observed in the presence of competitor (e.g. NCP compounds) as a percentage of receptor binding in the absence of a competitor.

[2] = system: T2, TrkA and p75^NTR (PC12 cells); test: as above; settings: compound 50 μM; 125I-NGF 1 nM; 2 h at 4° C.; receptor binding as percentage of binding in absence of competitor
T2 construct: PC12 cells (rat pheochromocytoma cells expressing TrkA and p75^NTR; obtained from ATCC); host or cells: PC12 rat pheochromocytoma cells (intact, in suspension)
T2 sequence (P01139 122-241): as above
Method: as §1

[3] = system: p75^NTR (PC12^nnr5 cells, expressing p75^NTR only); test: 125I-NGF receptor binding to PC12^nnr5 cells in the presence of competitor; settings: compound 50 μM, 125I-NGF 1 nM, 2 h at 4° C.; for nnr5 % of Max, Avg: average of three values; for nnr5 % of Max (individual determinations): receptor binding as percentage of binding in absence of competitor
Method: as §1

| Compound | PC12 % of Max, Avg [1] | PC12 % of Max (individual determinations) [2] | nnr5 % of Max, Avg [3] | nnr5 % of Max (individual determinations) [3] |
| --- | --- | --- | --- | --- |
| O=C(O)CCCN1C(=O)c2ccc(C(=O)O)cc2C1=O [Compound 102, 4-carboxy-N-(3-carboxypropyl)phthalimide] | = 91 % of Max | 79 % of Max and 80 % of Max and 113 % of Max | = 55 % of Max | 55 % of Max and 50 % of Max and 61 % of Max |
| O=C(O)c1ccc(N2C(=O)c3ccc(C(=O)O)cc3C2=O)cc1 [Compound 105, 4-carboxy-N-(p-carboxyphenyl)phthalimide] | = 36 % of Max | 29 % of Max and 38 % of Max and 40 % of Max | = 34 % of Max | 31 % of Max and 17 % of Max and 55 % of Max |
| O=C(O)CCCCCN1C(=O)c2cccc([N+](=O)[O-])c2C1=O [Compound 124, 3-nitro-N-(5-carboxypentyl)phthalimide] | = 92 % of Max | 117 % of Max and 71 % of Max and 89 % of Max | = 153 % of Max | 166 % of Max and 182 % of Max and 110 % of Max |
| O=C(O)c1cccc(N2C(=O)c3cccc4c([N+](=O)[O-])ccc(c34)C2=O)c1 [Compound 226, 4-nitro-N-(m-carboxyphenyl)-1,8-naphthalimide] | = 30 % of Max | 27 % of Max and 29 % of Max and 35 % of Max | = 12 % of Max | 13 % of Max (2×) and 10 % of Max |
| O=C(O)CCCCN1C(=O)c2ccc(C(=O)O)cc2C1=O [Compound 103, 4-carboxy-N-(4-carboxybutyl)phthalimide] | = 78 % of Max | 69 % of Max and 65 % of Max and 100 % of Max | = 47 % of Max | 32 % of Max and 69 % of Max and 41 % of Max |
| O=C(O)c1ccc2c(c1)C(=O)N(c1ccccc1)C2=O [Compound 109, 4-carboxy-N-phenylphthalimide] | = 56 % of Max | 50 % of Max and 60 % of Max and 57 % of Max | = 73 % of Max | 70 % of Max and 74 % of Max and 75 % of Max |
| Nc1ccc2c(c1)C(=O)N(c1ccc(C(=O)O)cc1)C2=O [Compound 165, 4-amino-N-(p-carboxyphenyl)phthalimide] | = 49 % of Max | 54 % of Max and 53 % of Max and 40 % of Max | = 61 % of Max | 61 % of Max and 53 % of Max and 68 % of Max |
| O=C(O)c1ccc(N2C(=O)c3cccc4cc([N+](=O)[O-])cc(c34)C2=O)cc1 [Compound 205, 3-nitro-N-(p-carboxyphenyl)-1,8-naphthalimide] | = 17 % of Max | 16 % of Max and 19 % of Max and 15 % of Max | = 9 % of Max | 0 % of Max and 11 % of Max and 15 % of Max |
| O=C(O)CCCCN1C(=O)c2cccc([N+](=O)[O-])c2C1=O [Compound 123, 3-nitro-N-(4-carboxybutyl)phthalimide] | = 97 % of Max | 118 % of Max and 75 % of Max and 98 % of Max | = 150 % of Max | 172 % of Max and 161 % of Max and 117 % of Max |
| O=C(O)CCCN1C(=O)c2ccc([N+](=O)[O-])cc2C1=O [Compound 142, 4-nitro-N-(3-carboxypropyl)phthalimide] | = 66 % of Max | 55 % of Max and 77 % of Max and 67 % of Max | = 51 % of Max | 52 % of Max and 51 % of Max (2×) |
| O=C(O)CCCN1C(=O)c2cccc([N+](=O)[O-])c2C1=O [Compound 122, 3-nitro-N-(3-carboxypropyl)phthalimide] | = 97 % of Max | 106 % of Max and 88 % of Max and 98 % of Max | = 163 % of Max | 232 % of Max and 152 % of Max and 104 % of Max |
| O=C(O)CCCCN1C(=O)c2ccc([N+](=O)[O-])cc2C1=O [Compound 143, 4-nitro-N-(4-carboxybutyl)phthalimide] | = 78 % of Max | 65 % of Max and 97 % of Max and 72 % of Max | = 75 % of Max | 76 % of Max and 79 % of Max and 71 % of Max |
| O=C(O)c1cccc(N2C(=O)c3cccc([N+](=O)[O-])c3C2=O)c1 [Compound 126, 3-nitro-N-(m-carboxyphenyl)phthalimide] | = 77 % of Max | 90 % of Max and 69 % of Max and 72 % of Max | = 52 % of Max | 34 % of Max and 54 % of Max and 69 % of Max |
| O=C(O)c1cccc(N2C(=O)c3ccc(C(=O)O)cc3C2=O)c1 [Compound 106, 4-carboxy-N-(m-carboxyphenyl)phthalimide] | = 44 % of Max | 40 % of Max (2×) and 52 % of Max | = 26 % of Max | 37 % of Max and 16 % of Max and 24 % of Max |
| O=C(O)CCN1C(=O)c2ccc(C(=O)O)cc2C1=O [Compound 101, 4-carboxy-N-(2-carboxyethyl)phthalimide] | = 107 % of Max | 89 % of Max and 94 % of Max and 139 % of Max | = 81 % of Max | 89 % of Max and 91 % of Max and 64 % of Max |
| O=C(O)CCN1C(=O)c2cccc([N+](=O)[O-])c2C1=O [Compound 121, 3-nitro-N-(2-carboxyethyl)phthalimide] | = 103 % of Max | 121 % of Max and 92 % of Max and 103 % of Max | = 165 % of Max | 204 % of Max and 188 % of Max and 103 % of Max |
| O=C(O)c1ccc(N2C(=O)c3ccc([N+](=O)[O-])cc3C2=O)cc1 [Compound 145, 4-nitro-N-(p-carboxyphenyl)phthalimide] | = 70 % of Max | 60 % of Max and 77 % of Max and 73 % of Max | = 78 % of Max | 76 % of Max and 86 % of Max and 71 % of Max |
| O=C(O)c1ccccc1N1C(=O)c2cccc3cc([N+](=O)[O-])cc(c23)C1=O [Compound 207, 3-nitro-N-(o-carboxyphenyl)-1,8-naphthalimide] | = 54 % of Max | 60 % of Max and 34 % of Max and 69 % of Max | = 58 % of Max | 64 % of Max and 52 % of Max and 59 % of Max |
| O=C(O)CCCCCN1C(=O)c2ccc([N+](=O)[O-])cc2C1=O [Compound 144, 4-nitro-N-(5-carboxypentyl)phthalimide] | = 78 % of Max | 68 % of Max and 89 % of Max and 77 % of Max | = 73 % of Max | 74 % of Max (2×) and 70 % of Max |
| O=C(O)c1cccc(N2C(=O)c3cccc4cc([N+](=O)[O-])cc(c34)C2=O)c1 [Compound 206, 3-nitro-N-(m-carboxyphenyl)-1,8-naphthalimide] | = 30 % of Max | 25 % of Max and 29 % of Max and 35 % of Max | = 23 % of Max | 20 % of Max and 17 % of Max and 33 % of Max |
| O=C(O)c1ccc(N2C(=O)c3cccc([N+](=O)[O-])c3C2=O)cc1 [Compound 125, 3-nitro-N-(p-carboxyphenyl)phthalimide] | = 90 % of Max | 83 % of Max and 87 % of Max and 99 % of Max | = 49 % of Max | 47 % of Max (2×) and 54 % of Max |
| O=C(O)CN1C(=O)c2ccc([N+](=O)[O-])cc2C1=O [Compound 140, 4-nitro-N-(1-carboxymethyl)phthalimide] | = 111 % of Max | 100 % of Max and 126 % of Max and 108 % of Max | = 99 % of Max | 89 % of Max and 108 % of Max and 100 % of Max |
